In patent US20240217983A1, “GPR119 AGONISTS” (Kallyope, Inc., priority 2021, published 2024) one finds Emax and EC50 data, which are given here for 15 compounds.

The experiment concerns the target T1, human GPR119 (hGPR119) (Homo sapiens, UniProt Q8TDV5).
T1 construct: expressed in transfected cells
T1 sequence (Q8TDV5 1-335): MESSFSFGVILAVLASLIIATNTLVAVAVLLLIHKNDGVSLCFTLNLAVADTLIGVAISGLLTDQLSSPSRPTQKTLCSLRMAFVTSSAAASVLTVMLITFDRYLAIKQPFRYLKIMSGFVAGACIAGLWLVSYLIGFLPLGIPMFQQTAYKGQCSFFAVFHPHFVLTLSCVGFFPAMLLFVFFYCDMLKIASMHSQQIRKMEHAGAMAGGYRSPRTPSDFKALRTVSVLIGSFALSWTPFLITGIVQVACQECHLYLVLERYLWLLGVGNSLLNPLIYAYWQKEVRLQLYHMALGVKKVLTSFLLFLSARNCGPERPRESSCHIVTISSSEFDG
Nature of the experiment: cAMP accumulation assay (Cisbio cAMP Gs dynamic HTRF kit) in CHO-K1 cells stably expressing human GPR119. Format: cell-based. The following applies: 4-parameter fit; for Emax: 1 h, % activity normalized to Max and Min controls; for EC50: 60 minutes at 37° C. In outline: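 Read-out is HTRF 665/620 nm ratio after 1 h detection at ambient temperature, converted to % activity against positive and negative controls, EC50 and Max activity by 4-parameter fit. Compounds were titrated onto ~10,000 thawed hGPR119-CHO-K1 cells/well for 60 min at 37° C/5% CO2.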
A general note: Changes in cAMP serve as a functional read-out for many G protein-coupled receptors.

Turning to `O=C(Cc1ccc(OCCCC2CCN(c3ncc(Cl)cn3)CC2)cc1F)N1CCCN(C[C@H](O)[C@@H](O)[C@H](O)[C@H](O)CO)CC1` [Example 51, 2-(4-(3-(1-(5-chloropyrimidin-2-yl)piperidin-4-yl)propoxy)-2-fluorophenyl)-1-(4-((2S,3R,4R,5R)-2,3,4,5,6-pentahydroxyhexyl)-1,4-diazepan-1-yl)ethan-1-one], the Emax was 100 to 130% and the EC50 was ≤ 100 nM.

As to `O=C(Cc1ccc(OCCCC2CCN(c3ncc(Cl)cn3)CC2)cc1F)N1CC2CCC1CN2C[C@H](O)[C@H](O)[C@H](O)CO` (stereo partly drawn) [Example 52, 2-(4-(3-(1-(5-chloropyrimidin-2-yl)piperidin-4-yl)propoxy)-2-fluorophenyl)-1-(5-((2S,3S,4R)-2,3,4,5-tetrahydroxypentyl)-2,5-diazabicyclo[2.2.2]octan-2-yl)ethan-1-one], the maximal effect (Emax) was ≥ 130% and the EC50 was ≤ 100 nM.

On to `O=C(Cc1ccc(OCCCC2CCN(c3ncc(Cl)cn3)CC2)cc1F)N1CC2CCC1CN2C[C@H](O)[C@@H](O)[C@H](O)[C@H](O)CO` (stereo partly drawn) [Example 53, 2-(4-(3-(1-(5-chloropyrimidin-2-yl)piperidin-4-yl)propoxy)-2-fluorophenyl)-1-(5-((2S,3R,4R,5R)-2,3,4,5,6-pentahydroxyhexyl)-2,5-diazabicyclo[2.2.2]octan-2-yl)ethan-1-one], for which the Emax lay in the range of 100 to 130% and the EC50 was ≤ 100 nM.

Take `O=C(Cc1ccc(OCCCC2CCN(c3ncc(Cl)cn3)CC2)cc1F)N1C[C@@H]2C[C@H]1CN2C[C@H](O)[C@H](O)[C@H](O)CO` [Example 54, 2-(4-(3-(1-(5-chloropyrimidin-2-yl)piperidin-4-yl)propoxy)-2-fluorophenyl)-1-((1S,4S)-5-((2S,3S,4R)-2,3,4,5-tetrahydroxypentyl)-2,5-diazabicyclo[2.2.1]heptan-2-yl)ethan-1-one]: the Emax fell in the range of 100 to 130% and the EC50 is ≤ 100 nM.

Consider `O=C(Cc1ccc(OCCCC2CCN(c3ncc(Cl)cn3)CC2)cc1F)N1C[C@@H]2C[C@H]1CN2C[C@H](O)[C@@H](O)[C@H](O)[C@H](O)CO` [Example 55, 2-(4-(3-(1-(5-chloropyrimidin-2-yl)piperidin-4-yl)propoxy)-2-fluorophenyl)-1-((1S,4S)-5-((2S,3R,4R,5R)-2,3,4,5,6-pentahydroxyhexyl)-2,5-diazabicyclo[2.2.1]heptan-2-yl)ethan-1-one], for which the Emax was in the range of 100 to 130% and the EC50 is ≤ 100 nM.

`O=C(Cc1ccc(OCCCC2CCN(c3ncc(Cl)cn3)CC2)cc1F)N1C2CC1CN(C[C@H](O)[C@H](O)[C@H](O)CO)C2` [Example 56, 2-(4-(3-(1-(5-chloropyrimidin-2-yl)piperidin-4-yl)propoxy)-2-fluorophenyl)-1-(3-((2S,3S,4R)-2,3,4,5-tetrahydroxypentyl)-3,6-diazabicyclo[3.1.1]heptan-6-yl)ethan-1-one]: the maximum response (Emax) is 100 to 130% and the EC50 is ≤ 100 nM.

For `O=C(Cc1ccc(OCCCC2CCN(c3ncc(Cl)cn3)CC2)cc1F)N1C2CC1CN(C[C@H](O)[C@@H](O)[C@H](O)[C@H](O)CO)C2` [Example 57, 2-(4-(3-(1-(5-chloropyrimidin-2-yl)piperidin-4-yl)propoxy)-2-fluorophenyl)-1-(3-((2S,3R,4R,5R)-2,3,4,5,6-pentahydroxyhexyl)-3,6-diazabicyclo[3.1.1]heptan-6-yl)ethan-1-one], the Emax lay within 100 to 130% and the EC50 was ≤ 100 nM.

Consider `O=C(Cc1ccc(OCCCC2CCN(c3ncc(Cl)cn3)CC2)cc1F)N1CCN(C[C@H](O)[C@H](O)[C@H](O)CO)C2CC21` (stereo partly drawn) [Example 58, 2-(4-(3-(1-(5-chloropyrimidin-2-yl)piperidin-4-yl)propoxy)-2-fluorophenyl)-1-(5-((2S,3S,4R)-2,3,4,5-tetrahydroxypentyl)-2,5-diazabicyclo[4.1.0]heptan-2-yl)ethan-1-one], for which the Emax lay within 100 to 130% and the concentration giving a half-maximal response (EC50) is ≤ 100 nM.

Regarding `O=C(Cc1ccc(OCCCC2CCN(c3ncc(Cl)cn3)CC2)cc1F)N1CCN(C[C@H](O)[C@@H](O)[C@H](O)[C@H](O)CO)C2CC21` (stereo partly drawn) [Example 59, 2-(4-(3-(1-(5-chloropyrimidin-2-yl)piperidin-4-yl)propoxy)-2-fluorophenyl)-1-(5-((2S,3R,4R,5R)-2,3,4,5,6-pentahydroxyhexyl)-2,5-diazabicyclo[4.1.0]heptan-2-yl)ethan-1-one], the Emax was 100 to 130% and the concentration for a half-maximal effect (EC50) was ≤ 100 nM.

For `O=C(Cc1ccc(OCCCC2CCN(c3ncc(Cl)cn3)CC2)cc1F)N1CC2(CCCN2C[C@H](O)[C@H](O)[C@H](O)CO)C1` [Example 60, 2-(4-(3-(1-(5-chloropyrimidin-2-yl)piperidin-4-yl)propoxy)-2-fluorophenyl)-1-(5-((2S,3S,4R)-2,3,4,5-tetrahydroxypentyl)-2,5-diazaspiro[3.4]octan-2-yl)ethan-1-one], the Emax is ≥ 130% and the EC50 was ≤ 100 nM.

For `O=C(Cc1ccc(OCCCC2CCN(c3ncc(Cl)cn3)CC2)cc1F)N1CC2(CCCN2C[C@H](O)[C@@H](O)[C@H](O)[C@H](O)CO)C1` [Example 61, 2-(4-(3-(1-(5-chloropyrimidin-2-yl)piperidin-4-yl)propoxy)-2-fluorophenyl)-1-(5-((2S,3R,4R,5R)-2,3,4,5,6-pentahydroxyhexyl)-2,5-diazaspiro[3.4]octan-2-yl)ethan-1-one], the Emax was ≥ 130% and the EC50 is ≤ 100 nM.

In the case of `O=C(Cc1ccc(OCCCC2CCN(c3ncc(Cl)cn3)CC2)cc1F)N1CC2(C1)N(C[C@H](O)[C@H](O)[C@H](O)CO)CC2(F)F` [Example 62, 2-(4-(3-(1-(5-chloropyrimidin-2-yl)piperidin-4-yl)propoxy)-2-fluorophenyl)-1-(3,3-difluoro-1-((2S,3S,4R)-2,3,4,5-tetrahydroxypentyl)-1,6-diazaspiro[3.3]heptan-6-yl)ethan-1-one], the Emax is 100 to 130% and the EC50 is ≤ 100 nM.

In the case of `O=C(Cc1ccc(OCCCC2CCN(c3ncc(Cl)cn3)CC2)cc1F)N1CC2(C1)N(C[C@H](O)[C@@H](O)[C@H](O)[C@H](O)CO)CC2(F)F` [Example 63, 2-(4-(3-(1-(5-chloropyrimidin-2-yl)piperidin-4-yl)propoxy)-2-fluorophenyl)-1-(3,3-difluoro-1-((2S,3R,4R,5R)-2,3,4,5,6-pentahydroxyhexyl)-1,6-diazaspiro[3.3]heptan-6-yl)ethan-1-one], the Emax is ≥ 130% and the EC50 is ≤ 100 nM.

As for `O=C(Cc1ccc(OCCCC2CCN(c3ncc(Cl)cn3)CC2)cc1F)N1C[C@H]2CCN(C[C@H](O)[C@H](O)[C@H](O)CO)[C@H]2C1` [Example 64, 2-(4-(3-(1-(5-chloropyrimidin-2-yl)piperidin-4-yl)propoxy)-2-fluorophenyl)-1-((3aR,6aR)-1-((2S,3S,4R)-2,3,4,5-tetrahydroxypentyl)hexahydropyrrolo[3,4-b]pyrrol-5(1H)-yl)ethan-1-one], the Emax was in the range of 100 to 130% and the EC50 was ≤ 100 nM.

With `O=C(Cc1ccc(OCCCC2CCN(c3ncc(Cl)cn3)CC2)cc1F)N1C[C@H]2CCN(C[C@H](O)[C@@H](O)[C@H](O)[C@H](O)CO)[C@H]2C1` [Example 65, 2-(4-(3-(1-(5-chloropyrimidin-2-yl)piperidin-4-yl)propoxy)-2-fluorophenyl)-1-((3aR,6aR)-1-((2S,3R,4R,5R)-2,3,4,5,6-pentahydroxyhexyl)hexahydropyrrolo[3,4-b]pyrrol-5(1H)-yl)ethan-1-one], the Emax was 100 to 130% and the EC50 is ≤ 100 nM.

Broadly, the Emax is the greatest response seen or fitted, relative to the assay's reference. One may read the EC50 as the midpoint of the concentration-response curve. Low readings indicate an effect from little substance, high ones a need for much substance.
